Like-named read-outs stand apart in the source and are kept apart here.
Experiments:
[1] = system: all microorganisms tested; details: 200 ppm gNO, cited from earlier work
[2] = system: methemoglobin (MetHb); details: healthy humans, cited from earlier work
[3] = system: Klebsiella sp. #1; details: 200 ppm gNO; saline; cited from earlier work
[4] = cited from earlier work
[5] = Phase I safety study: serum nitrite/nitrate by Griess reagent; format: in vivo, human; details: 160 ppm gNO 30 min, 5 times a day, 5 days
Description: After obtaining informed consent, treatment was initiated within 5 days of enrollment. Subjects were housed in a hospital ward and received 160 ppm gNO for 30 minutes every four hours (Q4h), five times a day, for five consecutive days by inhalation. Subjects returned for follow-up evaluations 3, 7 and 21 days after the final gNO administration. Subject safety was determined by monitoring vital signs, methemoglobin levels, lung function, blood chemistry, hematology, prothrombin time, inflammatory cytokine/chemokines levels and endothelial activation. These parameters were compared to baseline and at various time-points during and after gNO administration.
These parameters were measured continuously during every gNO administration course and for 3.5 hours after the first treatment of the day. Daily serum samples were collected and frozen at −80° C. and the serum […] level was measured using the Griess reagent.

[6] = system: bovine respiratory disease; details: intermittent gNO; cited from earlier work
[7] = system: Acinetobacter sp.; details: 200 ppm gNO; saline; cited from earlier work
[8] = system: influenza A/victoria/H3N2; details: 160 ppm gNO, cited from earlier work
[9] = system: Serracia sp.; details: 200 ppm gNO; saline; cited from earlier work

Question: With [N]=O [gNO, nitric oxide] as the compound, how does the bactericidal effect ([1]; all microorganisms tested) read?
Answer: complete bactericidal effect

Question: What about the “reduction in CFU/mL” value ([1]; every bacteria challenged) of the same compound?
Answer: ≥ 3 login CFU/mL

Question: What about the MetHb level ([2]; gNO 128 ppm for 3 hours) of the same compound?
Answer: > 5%

Question: What about the MetHb level ([2]; gNO 512 ppm for 55 minutes) of the same compound?
Answer: > 5%

Question: What about the LD100 [3] of the same compound?
Answer: 6 h

Question: And the “Latent Period” value [3]?
Answer: 3 h

Question: What about the “−2.5 Log10” value [3] of the same compound?
Answer: 3.5 hours

Question: And the “radius of action from site of origin” value ([4]; in vivo)?
Answer: approximately 200 microns

Question: And the “nitrate excreted in the urine, share of nitric oxide dose inhaled” value ([4]; predominant metabolite)?
Answer: more than 70%

Question: What about the “serum nitrite/nitrate levels vs baseline” value [5] of the same compound?
Answer: no significant differences

Question: And the “clinical symptoms of bovine respiratory disease” value [6]?
Answer: decrease the clinical symptoms

Question: What about the LD100 [7] of the same compound?
Answer: 6 h

Question: And the “Latent Period” value [7]?
Answer: 4 h

Question: What about the “−2.5 Log10” value [7] of the same compound?
Answer: 5 hours

Question: What about the “infectivity (plaque formation)” value [8] of the same compound?
Answer: capable of reducing the infectivity

Question: What about the “anti-viral effect, intermittent vs single exposure” value ([8]; three 30 minute treatments Q4h vs one 30 minute dose) of the same compound?
Answer: more evident in the intermittent form of exposure

Question: What about the LD100 [9] of the same compound?
Answer: 6 h

Question: And the “Latent Period” value [9]?
Answer: 4 h

Question: What about the “−2.5 Log10” value [9] of the same compound?
Answer: 4.9 hours
